pIC50: −log10 of the molar value.

The term pIC50 denotes −log10 of the IC50, conventionally taken in molar units. In general, inhibition refers to the relative decrease from the control value, in per cent.

One test addresses T1, Recombinant human LTC4 synthase (Homo sapiens, UniProt Q16873).
T1 construct: made in house; host or cells: Pichia pastoris
T1 sequence (Q16873 1-150): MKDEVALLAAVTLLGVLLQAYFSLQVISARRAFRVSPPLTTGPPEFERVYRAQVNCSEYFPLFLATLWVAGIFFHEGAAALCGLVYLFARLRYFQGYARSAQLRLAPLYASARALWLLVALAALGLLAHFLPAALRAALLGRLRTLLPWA
Briefly: LTC4 synthase in vitro assay (HPLC method). To be noted: inhibition of LTC4 synthase. The class given is biochemical. How it is done:
In the assay, LTC4 synthase catalyses the reaction where the substrate LTA4 methyl ester is converted to the corresponding LTC4 methyl ester. Recombinant human LTC4 synthase is expressed in Piccia pastoralis and the purified enzyme is dissolved in 25 mM Tris-buffer pH 7.8 and stored at −80° C. The assay is performed in phosphate buffered saline (PBS) pH 7.4, supplemented with 5 mM glutathione (GSH). The reaction is terminated by addition of acetonitrile/MeOH/acetic acid (50/50/1). The assay is performed at rt in 96-well plates. Analysis of the formed LTC4 methyl ester is performed with reversed phase HPLC (Waters 2795 utilizing an Onyx Monolithic C18 column). The mobile phase consists of acetonitrile/MeOH/H2O (32.5/30/37.5) with 1% acetic acid pH adjusted with NH3 to pH 5.6, and absorbance measured at 280 nm with a Waters 2487 UV-detector.
The following is added chronologically to each well: • 1. 50 μl assay buffer, PBS with 5 mM GSH. • 2. 0.5 μl inhibitor in DMSO (final conc. 1 nM-10 μM). • 3. 2 μl LTC4 synthase in PBS. The total protein concentration in this solution is 0.025 mg/ml. Incubation of the plate at room temperature for 10 minutes. • 4. 1-1.5 μl LTA4 methyl ester (final conc. 10 μM). Incubation of the plate at rt for 1 min. • 5. 50 μl stop solution.
80 μl of the incubation mixture is analysed with HPLC.
With `CC(C)(C)c1ccc(C(=O)Nc2cccc(Oc3ccc(NS(=O)(=O)c4ccc(C(C)(C)C)cc4)c(C(=O)O)c3)c2)cc1` [29:1], the pIC50 is 6.10.

Take `O=C(O)c1cc(Oc2ccc(Nc3ccc(F)cc3)c(C(=O)O)c2)ccc1Nc1ccc(F)cc1` [1:2, 3,3′-oxybis[6-(4-fluorophenyl-amino)benzoic acid]]: the negative-log IC50 (pIC50) was 6.07.

A further test addresses T1, Recombinant human LTC4 synthase. Kind of test: LTC4 synthase in vitro assay (HTRF detection of LTC4). The class given is biochemical. The conditions noted are these: compound concentration 3 μM; HTRF method. In a few lines:
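Pichia-expressed recombinant human LTC4 synthase at 0.5 μg/ml total protein in PBS pH 7.4 with 5 mM GSH, preincubated 10 min at RT with inhibitor (10 μM final). LTA4 (2.5 μM final) was then added for 5 min at RT. LTC4 formed was read by HTRF.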
In general terms: TR-FRET usually uses a lanthanide donor and a delayed reading to cut background.
Turning to `CCOc1ccc(C(=O)Nc2ccc(Oc3ccc(NC(=O)c4ccccc4)cc3)cc2C(=O)O)cc1` [8:11, 5-(4-benzoylaminophenoxy)-2-(4-ethoxybenzoylamino)-benzoic acid], the inhibition at 3 µM was 70%.

In the case of `O=C(O)c1cc(Oc2ccc(Nc3ccc(C(=O)C4CC4)cc3)c(C(=O)O)c2)ccc1Nc1ccc(F)cc1` [1:7, 5-[3-carboxy-4-(4-cyclopropane-carbonylphenylamino)phenyloxy]-2-(4-fluorophenylamino)benzene-carboxylic acid], the inhibition at 3 µM amounted to 97%.

The test is the same for the next values; noted with them: total concentration of title compound in the assay 10 μM; HTRF method.
On to `CC(C)(C)c1ccc(C(=O)Nc2cccc(Oc3ccc(NS(=O)(=O)c4ccc(C(C)(C)C)cc4)c(C(=O)O)c3)c2)cc1` [29:1], for which the inhibition at 10 µM came to 97%.

With `O=C(O)c1cc(Oc2ccc(Nc3ccc(F)cc3)c(C(=O)O)c2)ccc1Nc1ccc(F)cc1` [1:2, 3,3′-oxybis[6-(4-fluorophenyl-amino)benzoic acid]], the inhibition at 10 µM was 97%.

Take `CCCCc1ccc(C(=O)Nc2ccc(Oc3ccc(Nc4ccc(F)cc4)cc3)cc2C(=O)O)cc1` [12:2, 5-(4-(4-fluorophenylamino)-phenoxy)-2-(4-butylbenz-amido)benzoic acid]: the “% inh.” value came out at 94%.

Consider `O=C(O)c1cc(Oc2ccc(S(=O)(=O)Nc3ccc(F)c(F)c3)cc2)ccc1NC(=O)c1cccc(Cl)c1Cl` [25:5, 2-(2,3-Dichlorobenzoylamino)-5-[4-(3,4-difluorophenylsulfamoyl)-phenoxy]benzoic acid], for which the inhibition at 10 µM amounted to 100%.

In the case of `CCCCOc1ccc(S(=O)(=O)Nc2ccc(Oc3cccc(CC(=O)NS(=O)(=O)c4ccc(F)c(F)c4)c3)cc2C(=O)OC(C)(C)C)cc1` [26:3], the “% inh.” value is 95%.

Turning to `CCCCc1ccc(C(=O)Nc2ccc([S+]([O-])c3ccc(NC(=O)c4ccc(CCCC)cc4)c(C(=O)O)c3)cc2C(=O)O)cc1` [15:1, 5-(4-(4-butylbenzamido)-3-carboxyphenylsulfinyl)-2-(4-butylbenzamido)benzoic acid], the inhibition at 10 µM turned out to be 99%.

Regarding `CN(c1cc(Oc2ccc(NC(=O)c3cccc(Cl)c3)cc2)cc(C(=O)O)c1)c1ccc(F)c(F)c1` [18:6, 3-[4-(3-Chloro-benzoylamino)-phenoxy]-5-[(3,4-difluoro-phenyl)-methyl-amino]-benzoic acid], the inhibition at 10 µM was found to be 96%.

For `COc1ccc(S(=O)(=O)N(C)c2ccc(Oc3ccc(NC(=O)c4ccccc4C(F)(F)F)c(C(=O)O)c3)cc2)cc1` [11:18, 5-{4-[(4-Methoxy-benzenesulfonyl)-methyl-amino]-phenoxy}-2-(2-trifluoromethyl-benzoylamino)-benzoic acid], the inhibition at 10 µM stood at 96%.

For the compound `Cc1nc(C(F)(F)F)ccc1C(=O)Nc1ccc(Oc2ccc(NC(=O)c3ccc(OC(C)C)cc3)cc2)cc1C(=O)O` [8:14, 5-[4-(4-isopropoxybenzoyl-amino)phenoxy]-2-[(2-methyl-6-trifluoromethylpyridine-3-carbonyl)amino]benzoic acid], the inhibition at 10 µM is 100%.

As to `O=C(O)c1cc(Sc2ccc(NS(=O)(=O)c3ccc(Cl)cc3)cc2)ccc1NS(=O)(=O)c1ccc(Cl)cc1` [14:4, 2-(4-chloro-benzenesulfonyl-amino)-5-[4-(4-chloro-benzenesulfonylamino)-phenylsulfanyl]-benzoic acid], the inhibition at 10 µM stood at 100%.

Consider `CCCCc1ccc(C(=O)Nc2ccc(Oc3ccc(NS(=O)(=O)c4ccccc4)c(C(=O)OC)c3)cc2C(=O)O)cc1` [Example 7:1, 2-(4-butylbenzamido)-5-(3-(methoxycarbonyl)-4-(phenylsulfonamido)-phenoxy)benzoic acid], for which the inhibition at 10 µM was 95%.

Take `CN(c1cc(Oc2ccc(Nc3ccc(C(=O)C4CC4)cc3)cc2)cc(C(=O)O)c1)c1ccc(F)c(F)c1` [18:3, 3-[4-(4-Cyclopropanecarbonyl-phenylamino)-phenoxy]-5-[(3,4-difluoro-phenyl)-methyl-amino]-benzoic acid]: the inhibition at 10 µM stood at 95%.

With `CC(C)(C)OC(=O)c1cc(Oc2cccc(C(=O)NS(=O)(=O)c3ccc(F)c(F)c3)c2)ccc1Nc1ccc(Cl)cc1` [20:6, 2-(4-Chloro-phenylamino)-5-[3-(3,4-difluoro-benzenesulfonylamino-carbonyl)-phenoxy]-benzoic acid t-butyl ester], the inhibition at 10 µM is 100%.

As to `N#Cc1ccc(C(=O)Nc2ccc(Oc3ccc(NC(=O)c4cccc(Cl)c4)c(C(=O)O)c3)cc2C(=O)O)cc1` [2:9, 5-[3-carboxy-4-(4-cyanobenzamido)-phenyloxy]-2-(3-chlorobenzamido)benzoic acid], the inhibition at 10 µM turned out to be 99%.

`CCCCc1ccc(C(=O)Nc2ccc(Sc3ccc(NC(=O)c4ccc(CCCC)cc4)c(C(=O)O)c3)cc2C(=O)O)cc1` [13:1, 2-(4-butylbenzamido)-5-((4-(4-butylbenzamido)-3-carboxyphenyl)-sulfanyl)benzoic acid]: the inhibition at 10 µM was found to be 98%.

In the case of `O=C(Nc1ccc(Oc2ccc(NC(=O)c3cccc(Cl)c3)c(C(=O)O)c2)cc1C(=O)O)c1ccc([N+](=O)[O-])cc1` [2:3, 5-[3-carboxy-4-(4-nitrobenzamido)-phenyloxy]-2-(3-chlorobenzamido)benzoic acid], the inhibition at 10 µM was 100%.

With `CCCCOc1ccc(S(=O)(=O)Nc2ccc(Oc3cccc(C(=O)NS(=O)(=O)c4cccc(Cl)c4F)c3)cc2C(=O)O)cc1` [20:1, 2-(4-Butoxy-benzenesulfonylamino)-5-[3-(3-chloro-2-fluoro-benzene-sulfonylaminocarbonyl)-phenoxy]-benzoic acid], the inhibition at 10 µM worked out at 99%.

Regarding `O=C(Nc1ccc(Oc2ccc(NC(=O)c3ccc(OC(F)(F)F)cc3)c(C(=O)O)c2)cc1)c1ccccc1` [8:10, 5-(4-benzoylaminophenoxy)-2-(4-trifluoromethoxy-benzoylamino)benzoic acid], the inhibition at 10 µM was determined as 67%.

With `O=C(Nc1ccc(Oc2cccc(Oc3ccc(F)c(F)c3)c2)cc1C(=O)O)c1ccc(OC2CCCC2)cc1` [Example 28:2, 2-(4-Cyclopentyloxybenzoylamino)-5-[3-(3,4-difluorophenoxy)phenoxy]benzoic acid], the inhibition at 10 µM was 94%.

`CCCCOc1ccc(S(=O)(=O)Nc2ccc(Oc3ccc(NC(=O)c4ccccc4)cc3)cc2CCC(=O)O)cc1` [Example 22:2, 3-[5-(4-Benzoylaminophenoxy)-2-(4-butoxybenzenesulfonylamino)-phenyl]propionic acid]: the inhibition at 10 µM is 99%.

Take “2-[(2-Chloro-pyridine-3-carbonyl)-amino]-5-{4-[(4-methoxy-benzene-sulfonyl)methylamino]-phenoxy}benzoic acid [11:20]”: the “% inh.” value was 76%.

With `CCCCOc1ccc(S(=O)(=O)Nc2ccc(Oc3cccc(CC(=O)NS(=O)(=O)c4cccc(Cl)c4F)c3)cc2C(=O)O)cc1` [26:5, 2-(4-Butoxybenzenesulfonylamino)-5-{3-[2-(3-chloro-2-fluorobenzene-sulfonylamino)-2-oxoethyl]phenoxy}-benzoic acid], the inhibition at 10 µM was 99%.

As to `O=C(O)Cc1cc(Oc2ccc(NC(=O)c3ccc(C(F)(F)F)cc3F)c(C(=O)O)c2)ccc1NC(=O)c1cc(Cl)ccc1O` [6:2, 5-[3-carboxymethyl-4-(5-chloro-2-hydroxybenzoylamino)-phenoxy]-2-(2-fluoro-4-trifluoromethyl-benzoylamino)benzoic acid], the inhibition at 10 µM was found to be 98%.

Regarding `CCCCc1ccc(C(=O)Nc2ccc(Oc3ccc(NC(=O)c4ccccc4)c(C(=O)O)c3)cc2C(=O)O)cc1` [5:1, 5-[3-carboxy-4-(4-butylbenzamido)-phenyloxy]-2-benzamidobenzoic acid], the inhibition at 10 µM stood at 100%.

On to `CCCCc1ccc(S(=O)(=O)N(C)c2ccc(Oc3ccc(NC(=O)c4ccc(C)cc4)c(C(=O)O)c3)cc2)cc1` [11:5, 5-{4-[(4-butyl-benzenesulfonyl)-methylamino]phenoxy}-2-(4-methylbenzoylamino)benzoic acid], for which the inhibition at 10 µM was 99%.

Take `COc1ccc(C(=O)Nc2ccc(Oc3ccc(N(C)C(=O)c4ccc(C(C)(C)C)cc4)cc3)cc2C(=O)O)cc1` [9:2, 5-(4-((N-methyl)-4-tert-butylbenz-amido)phenoxy)-2-(4-methoxybenz-amido)benzoic acid]: the “% inh.” value is 96%.

Turning to `CCCCc1ccc(C(=O)Nc2cccc(Oc3ccc(NC(=O)c4ccc(OC(F)(F)F)cc4)c(C(=O)O)c3)c2)cc1` [10:2, 5-[(3-(4(1-butyl)benzoylamino)-phenoxy)]-2-(4-trifluoromethoxy-benzoylamino)benzoic acid], the inhibition at 10 µM was 88%.

The values above are taken from US20110071197A1, “BIS-ARYL COMPOUNDS FOR USE AS MEDICAMENTS” (priority 2008, published 2011).
